Measured values from ChEMBL document CHEMBL5143534, “Synthesis and biological evaluation of BU-4664L derivatives as potential anticancer agents” (2022).

Experiments:
[1] = test system: NCI-H460; assay: Antiproliferative activity against human NCI-H460 cells assessed as cell growth inhibition by MTT assay; type: functional
[2] = test system: PC-3; assay: Antiproliferative activity against human PC-3 cells assessed as cell growth inhibition by MTT assay; type: functional

SMILES	GI50 [1]	GI50 [2]
COc1cc(CN2C(=O)c3ccccc3Nc3cnc(Cl)nc32)cc(OC)c1OC	–	8.23 µM
COc1ccc2c(c1)N(C/C=C(\C)CCC=C(C)C)C(=O)c1ccccc1N2	43.9 µM	10.8 µM
COc1ccc2c(c1)N(Cc1cc(OC)c(OC)c(OC)c1)C(=O)c1ccccc1N2	34.8 µM	10.2 µM
COc1ccc2c(c1)N(C/C=C/c1ccccc1)C(=O)c1ccccc1N2	36.6 µM	7.37 µM
COc1ccc2c(c1)N(Cc1ccc(OC)c(OC)c1)C(=O)c1ccccc1N2	44.4 µM	12.5 µM
COc1ccc2c(c1)N(C/C=C(\C)CC/C=C(\C)CCC=C(C)C)C(=O)c1ccccc1N2	34.4 µM	11 µM
COc1ccc(CN2C(=O)c3ccccc3Nc3ccc(OC)cc32)cc1	–	10.6 µM
O=C1c2ccccc2Nc2cnc(Cl)nc2N1C/C=C/c1ccccc1	–	12.5 µM
COc1ccc(CN2C(=O)c3ccccc3Nc3cnc(Cl)nc32)cc1OC	–	8.31 µM

Now from value to compound:

GI50 [1]	GI50 [2]	SMILES
19.9 µM	5.94 µM	CC(C)=CCC/C(C)=C/CC/C(C)=C/CN1C(=O)c2ccccc2Nc2cnc(Cl)nc21
24.3 µM	7.29 µM	CC(C)=CCC/C(C)=C/CN1C(=O)c2ccccc2Nc2cnc(Cl)nc21
–	6.69 µM	COc1ccc(CN2C(=O)c3ccccc3Nc3cnc(Cl)nc32)cc1
25.6 µM	5.66 µM	COc1ccc2c(c1)N(CC=C(C)C)C(=O)c1ccccc1N2
38.1 µM	6.12 µM	CC(C)=CCN1C(=O)c2ccccc2Nc2cnc(Cl)nc21
13.6 µM	1.95 µM	CC(C)=CCC/C(C)=C/CC/C(C)=C/CN1C(=O)c2cccc(O)c2Nc2c(O)cc(O)cc21 [DIAZEPINOMICIN]
